In paper PMC5647335, “Controlling the bioactivity of a peptide hormone in vivo by reversible self-assembly” (Nature Communications, 2017):

Test system: CHO-hGLP-1R cells
Assay type: cell-based, Chinese hamster
Settings: 48 h treatment, resazurin 5 h, fluorescence 590 nm; Oxm concentrations up to 1000-fold above the EC50; three independent experiments
Method: CHO-hGLP-1R cells in growth medium (DMEM, 10%FBS Sigma-Aldrich) were plated at 10,000 cells per well in 96-well black clear-bottom poly-D-lysine-coated microtiter plates (Corning, USA). […] Fluorescence emission was measured at 590 nm (560 nm excitation).

Structure (SMILES)	in vitro cytotoxicity (cell viability)
CN[C@@H]1C[C@H]2O[C@@](C)([C@@H]1OC)n1c3ccccc3c3c4c(c5c6ccccc6n2c5c31)C(=O)NC4 [staurosporine]	expected curves of concentration vs. loss of cell viability
Cn1cc(C2=C(c3cn(CCCSC(=N)N)c4ccccc34)C(=O)NC2=O)c2ccccc21 [Ro-318220]	expected curves of concentration vs. loss of cell viability
